Experimental data published in patent US9845482B2, “Compositions and methods for enhancing bioenergetic status in female germ cells” (The General Hospital Corporation, priority 2011, dated 2017).

How the values were obtained:
[1] = test system: aged female mice (C57BL/6); assay: Dietary supplementation of aged female mice: oocyte yield, maturation and quality after superovulation; type: in vivo; conditions: for percentage of mature, metaphase II oocytes retrieved following superovulation / quality of oocytes in aged mice: compared to age appropriate controls (Hist 12 M); for oocyte yield: diet for 3 months from 8.5 months of age, apigenin 0.5 g/kg, luteolin 0.5 g/kg, SRT-1720 2 g/kg, superovulation
Text: Yield, maturational status and post-fertilization developmental competency of oocytes obtained from 12-month-old (aged) female mice returned to an ad-libitum (AL) diet for 1 month following 7.5 months of dietary CR (CR-AL-fed) initiated in a stepwise fashion at 3.5 months of age were first evaluated. This protocol was based on prior work showing that female mice maintained on CR during adulthood continue to breed and deliver offspring into advanced ages after their return to an AL diet (Selesniemi et al. 2008 Aging Cell 7:622-629). Mice were superovulated by injection of pregnant mare serum gonadotropin (PMSG, 10 IU; Sigma Aldrich Corporation, St. Louis, Mo., USA) followed by human chorionic gonadotropin (hCG, 10 IU; Sigma Aldrich Corporation, St. Louis, Mo., USA) 46-48 hours later. Oocytes were collected from oviducts 15-16 hours after hCG injection, denuded of cumulus cells using hyaluronidase (Irvine Scientific, Santa Ana, Calif., USA), washed with human tubal fluid (HTF; Irvine Scientific, Santa Ana, Calif., USA) supplemented with BSA (fraction V, fatty acid-free; Sigma Aldrich Corporation, St. Louis, Mo., USA), and classified as MII (first polar body in perivitelline space), maturation arrested (germinal vesicle breakdown with no polar body extrusion, or germinal vesicle intact), or degenerated.
Female mice (8 months old, strain C57BL/6) were maintained on a 12:12 light dark cycle and provided ad-libitum access to water and food. Conditions within rooms were maintained at 21°±1° C. with 50%±20% relative humidity. Mice were placed on the experimental diets at 8.5 months of age and were maintained for 3 months on the diets. All diets were custom made, ordered from Research Diets: OpenStandard Diet (20 kcal % Protein, 15 kcal % Fat and 65 kcal % Carbohydrate) and the experimental groups consisted of regular OpenStandard Diet, OpenStandard Diet+Apigenin at 0.5 g/kg of body weight, OpenStandard Diet+Luteolin at 0.5 g/kg, and OpenStandard Diet+SRT-1720 at 2 g/kg. Food intake was measured weekly and average weight gain was assessed every two weeks. Each experimental group consisted of 12 randomly allocated mice. When mice were euthanized an additional group of 3-month old C57BL/6 females (3 M) were used as positive controls. In all groups, oocyte numbers were assessed following hormonal stimulation for superovulation.
Because of the extremely low yield of oocytes from the aged control females, historical data for oocyte yield from 12-month-old C57BL/6 females (referred to as “Hist 12 M”; from Selesniemi et al., Proc Natl Acad Sci USA. 2011 July 26; 108(30): 12319-12324) can be used as an additional reference point for an aged control group.
In FIG. 45A, the percentage of oocytes assessed at metaphase II is shown. In FIG. 45B, the percentage of oocytes arrested at the germinal vesicle (immature) stage is shown. In FIG. 45C, the percentage of atretic (dead) oocytes is shown.

Mouse OSCs = assay: NAD+ and NADH levels in mouse OSCs treated with mitochondrial enhancers; type: cell-based; conditions: 24 hours
Method: FIG. 35 depicts levels of NAD+ (A) and NADH (B) in OSCs treated with mitochondrial enhancers. Mouse OSCs maintained in culture (Zou et al., Nat Cell Biol 2009 11:631-636) were exposed to the indicated test compounds for 24 hours and then assessed for levels of NAD+ and NADH. Female infertility due to chemotherapy, aging and premature ovarian failure (POF) is due in part to a decline in mitochondrial function in oocytes and OSCs. Accordingly, OSCs from mice were used to screen for small compounds that enhance mitochondrial function (“bioenergetic status”) in female germline cells. Assays for enhancing mitochondrial function included mtDNA content, ATP, NAD+/NADH, mitochondrial mass, mitochondrial membrane potential, and gene expression of known mitochondrial mass regulators and electron transport chain components. All the compounds were dissolved in DMSO. For screening purposes the cells were treated with the vehicle (0.001% DMSO) or with 25 or 50 μM of each compound (except for berberine, which the concentrations used for the screen were 5 μM and 25 μM) for 24 hours. For validation of the top 6 hits, cells were treated with vehicle (0.001% DMSO) or either 5 or 25 μM of each compound for 24 hours. For the gene expression profile, the cells were treated with the concentration that was considered to work better in the previous validation assays.

Structure (SMILES)	percentage of mature, metaphase II oocytes retrieved following superovulation [1]	quality of oocytes in aged mice [1]	oocyte yield [1]	NAD^+ levels (Mouse OSCs)
O=c1cc(-c2ccc(O)cc2)oc2cc(O)cc(O)c12 [apigenin, 5,7-Dihydroxy-2-(4-hydroxyphenyl)-4H-1-benzopyran-4-one]	do not affect	improve the quality of oocytes	increase oocyte yield	raise
O=c1cc(-c2ccc(O)c(O)c2)oc2cc(O)cc(O)c12 [luteolin, 2-(3,4-Dihydroxyphenyl)-5,7-dihydroxy-4-chromenone]	do not affect	improve the quality of oocytes	increase oocyte yield	raise
O=C(Nc1ccccc1-c1cn2c(CN3CCNCC3)csc2n1)c1cnc2ccccc2n1 [SRT-1720, N-[2[3-(piperazin-1-ylmethyl)imidazo[2,1-b][1,3]thiazol-6-yl]phenyl]quinoxaline-2-carboxamide]	do not affect	improve the quality of oocytes	increase oocyte yield	–
